We go through five compounds from patent publication US4303664A, “Novel penicillin derivatives containing a coumarin nucleus and medicines containing the same” (Teijin Limited, priority 1978, dated 1981).

Converted amounts (≈) assume the structure as drawn.

Broadly, the MIC is the least concentration at which growth counts as inhibited.

Common to all, as to type: cell-based
Experiment [1] relates to Pseudomonas aeruginosa 0-37. Put plainly: Bactericidal test (MIC), Pseudomonas aeruginosa 0-37. To be noted: 037; (13) Pseudomonas aeruginosa 0-37. An excerpt:
(§1) Results of bactericidal tests (MIC, r/ml) on the penicillin derivatives of this invention prepared in the above examples are shown in the following table.

The subject of experiment [2] is Pseudomonas aeruginosa Tid-53. Nature of the experiment: Bactericidal test (MIC), Pseudomonas aeruginosa Tid-53. To be noted: TID53; (14) Pseudomonas aeruginosa Tid-53.
Description: as §1

The test system of a further experiment is Rettgerella var. Tid-21. Nature of the experiment: Bactericidal test (MIC), Rettgerella var. Tid-21. The conditions noted are these: (10) Rettgerella var. Tid-21; read-out: MIC.
Description: as §1

In the next experiment the test system is Enterobactor cloacae 147. Put plainly: Bactericidal test (MIC), Enterobactor cloacae 147. To be noted: (7) Enterobactor cloacae 147.
Description: as §1

The subject of experiment [3] is Pseudomonas aeruginosa IFO-3080. Put plainly: Bactericidal test (MIC), Pseudomonas aeruginosa IFO-3080. To be noted: IFO3080; (12) Pseudomonas aeruginosa IFO-3080; read-out: MIC.
Description: as §1

Experiment [4] has as its system Escherichia Coli NIHJ JC-2. Nature of the experiment: Bactericidal test (MIC), Escherichia Coli NIHJ JC-2. To be noted: NIHJJC2; (5) Escherichia Coli NIHJ JC-2.
Description: as §1

The subject of experiment [5] is Pseudomonas aeruginosa 130. Put plainly: Bactericidal test (MIC), Pseudomonas aeruginosa 130. To be noted: (16) Pseudomonas aeruginosa 130.
Description: as §1

Experiment [6] deals with Staphylococcus aureus 209-p. Put plainly: Bactericidal test (MIC), Staphylococcus aureus 209-p. The conditions noted are these: (1) Staphylococcus aureus 209-p.
Description: as §1

In experiment [7] the test system is Enterobacter cloacae IF012937. Nature of the experiment: Bactericidal test (MIC), Enterobacter cloacae IF012937. The conditions noted are these: (8) Enterobacter cloacae IF012937.
Description: as §1

The next experiment relates to Serratia G-18. Put plainly: Bactericidal test (MIC), Serratia G-18. To be noted: G18; (11) Serratia G-18; read-out: MIC.
Description: as §1

In experiment [8] the test system is Pseudomonas aeruginosa GN-315. Nature of the experiment: Bactericidal test (MIC), Pseudomonas aeruginosa GN-315. The conditions noted are these: GN315; (15) Pseudomonas aeruginosa GN-315.
Description: as §1

Another experiment relates to Morganella var. G-2. Nature of the experiment: Bactericidal test (MIC), Morganella var. G-2. The conditions noted are these: VAR.G2; (9) Morganella var. G-2; read-out: MIC.
Description: as §1

A further experiment relates to Bacillus subtilis. Put plainly: Bactericidal test (MIC), Bacillus subtilis. The conditions noted are these: (3) Bacillus subtilis.
Description: as §1

Experiment [9] has as its system Klebsiella neumoniae ATCC10031. Nature of the experiment: Bactericidal test (MIC), Klebsiella neumoniae ATCC10031. To be noted: (6) Klebsiella neumoniae ATCC10031; read-out: MIC.
Description: as §1

The test system of experiment [10] is Staphylococcus aureus 1248. Nature of the experiment: Bactericidal test (MIC), Staphylococcus aureus 1248. To be noted: (2) Staphylococcus aureus 1248; read-out: MIC.
Description: as §1

Experiment [11] has as its system Salmonella typhimurium G-20. Nature of the experiment: Bactericidal test (MIC), Salmonella typhimurium G-20. To be noted: Salmonella enterica; (4) Salmonella typhimurium G-20.
Description: as §1

Consider `COc1cccc2oc(=O)c(C(=O)N[C@@H](C(=O)N[C@@H]3C(=O)N4[C@@H]3SC(C)(C)[C@@H]4C(=O)O)c3ccccc3)cc12` [Example 24, D-α-(5-Methoxycoumarin-3-carbonamido)benzylpenicillin], for which the MIC in [1] is 12.5 µg/mL (≈ 22.7 µM); in [2], 3.13 µg/mL (≈ 5.67 µM); in the experiment with Rettgerella var. Tid-21, 3.13 µg/mL (≈ 5.67 µM); against Enterobactor cloacae 147, 1.56 µg/mL (≈ 2.83 µM); in [3], 0.8 µg/mL (≈ 1.45 µM); in [4], less than 0.4 µg/mL. In addition, the MIC is 1.56 µg/mL (≈ 2.83 µM) in experiment [5]; less than 0.4 µg/mL in experiment [6]; 6.25 µg/mL (≈ 11.3 µM) in experiment [7]; 25 µg/mL (≈ 45.3 µM) in the experiment on Serratia G-18; 3.13 µg/mL (≈ 5.67 µM) in [8]; 3.13 µg/mL (≈ 5.67 µM) in the experiment with Morganella var. G-2.
As for `CCOc1cccc2cc(C(=O)N[C@@H](C(=O)N[C@@H]3C(=O)N4[C@@H]3SC(C)(C)[C@@H]4C(=O)O)c3ccccc3)c(=O)oc12` [Example 19, D(-)-α-(8-Ethoxycoumarin-3-carbonamido)benzylpenicillin], the MIC is 12.5 µg/mL (≈ 22.1 µM) in experiment [1]; 3.13 µg/mL (≈ 5.53 µM) in [2]; 3.13 µg/mL (≈ 5.53 µM) in the experiment with Rettgerella var. Tid-21; less than 0.4 µg/mL in the experiment on Bacillus subtilis; 6.25 µg/mL (≈ 11.1 µM) with Enterobactor cloacae 147; 1.56 µg/mL (≈ 2.76 µM) in experiment [3]. In addition, the MIC in experiment [4] is less than 0.4 µg/mL; in [9] it was less than 0.4 µg/mL; in experiment [5], 1.56 µg/mL (≈ 2.76 µM); in [6], less than 0.4 µg/mL; in [7] it was 6.25 µg/mL (≈ 11.1 µM); in the experiment on Serratia G-18 it was 12.5 µg/mL (≈ 22.1 µM). The minimal inhibitory concentration (MIC) in [10] is 3.13 µg/mL (≈ 5.53 µM); in experiment [11], less than 0.4 µg/mL; in experiment [8], 6.25 µg/mL (≈ 11.1 µM); in the experiment on Morganella var. G-2, 3.13 µg/mL (≈ 5.53 µM).
As for `COc1ccc2cc(C(=O)N[C@@H](C(=O)N[C@@H]3C(=O)N4[C@@H]3SC(C)(C)[C@@H]4C(=O)O)c3ccccc3)c(=O)oc2c1` [Example 8, D(-)-α-(7-Methoxycoumarin-3-carbonamido)benzylpenicillin], the MIC in [1] is 25 µg/mL (≈ 45.3 µM); in experiment [2] it was 3.13 µg/mL (≈ 5.67 µM); with Rettgerella var. Tid-21 it was 6.25 µg/mL (≈ 11.3 µM); in the experiment on Bacillus subtilis it was less than 0.4 µg/mL; in the experiment on Enterobactor cloacae 147 it was 1.56 µg/mL (≈ 2.83 µM); in [3] it was 1.56 µg/mL (≈ 2.83 µM). For the same compound, the MIC in experiment [4] is less than 0.4 µg/mL; in [9], less than 0.4 µg/mL; in experiment [5], 3.13 µg/mL (≈ 5.67 µM); in experiment [6] it was less than 0.4 µg/mL; in [7] it was 6.25 µg/mL (≈ 11.3 µM); with Serratia G-18, 12.5 µg/mL (≈ 22.7 µM). Further, the MIC in experiment [10] is less than 0.4 µg/mL; in [11], less than 0.4 µg/mL; in [8], 3.13 µg/mL (≈ 5.67 µM); in the experiment on Morganella var. G-2, 3.13 µg/mL (≈ 5.67 µM).
For `COc1cc(OC)c2cc(C(=O)N[C@@H](C(=O)N[C@@H]3C(=O)N4[C@@H]3SC(C)(C)[C@@H]4C(=O)O)c3ccccc3)c(=O)oc2c1` [Example 22, D-α-(5,7-Dimethoxycoumarin-3-carbonamido)benzylpenicillin], the MIC in [1] was 50 µg/mL (≈ 86 µM); in experiment [2], 6.25 µg/mL (≈ 10.7 µM); with Rettgerella var. Tid-21, 25 µg/mL (≈ 43 µM); in the experiment with Enterobactor cloacae 147, 12.5 µg/mL (≈ 21.5 µM); in [3], 1.56 µg/mL (≈ 2.68 µM); in [4] it was less than 0.4 µg/mL. Besides, the MIC in [9] was 1.56 µg/mL (≈ 2.68 µM); in experiment [5], 3.13 µg/mL (≈ 5.38 µM); in experiment [6] it was less than 0.4 µg/mL; in experiment [7], 50 µg/mL (≈ 86 µM); in the experiment on Serratia G-18 it was 100 µg/mL (≈ 172 µM); in experiment [10], 3.13 µg/mL (≈ 5.38 µM). Besides, the results for the minimum inhibitory concentration (MIC) (in experiment [8]; with Morganella var. G-2) were 6.25 µg/mL (≈ 10.7 µM) and 50 µg/mL (≈ 86 µM), respectively.
Regarding `CC1(C)S[C@@H]2[C@H](NC(=O)[C@H](NC(=O)c3cc4ccc(O)cc4oc3=O)c3ccccc3)C(=O)N2[C@H]1C(=O)O` [Example 11, D(-)-α-(7-Hydroxycoumarin-3-carbonamido)benzylpenicillin], the minimal inhibitory concentration (MIC) in experiment [1] was 100 µg/mL (≈ 186 µM); in experiment [2], 25 µg/mL (≈ 46.5 µM); in the experiment with Rettgerella var. Tid-21, 25 µg/mL (≈ 46.5 µM); in the experiment with Bacillus subtilis it was less than 0.4 µg/mL; in the experiment with Enterobactor cloacae 147, 12.5 µg/mL (≈ 23.3 µM); in experiment [3] it was 3.13 µg/mL (≈ 5.82 µM). Also, the MIC in [4] was less than 0.4 µg/mL; in experiment [9] it was 12.5 µg/mL (≈ 23.3 µM); in [5], 6.25 µg/mL (≈ 11.6 µM); in experiment [6] it was less than 0.4 µg/mL; in experiment [7], 12.5 µg/mL (≈ 23.3 µM); with Serratia G-18, 200 µg/mL (≈ 372 µM). Moreover, the minimum inhibitory concentration (MIC) in experiment [10] was 6.25 µg/mL (≈ 11.6 µM); in [11], less than 0.4 µg/mL; in [8] it was 12.5 µg/mL (≈ 23.3 µM); with Morganella var. G-2, 50 µg/mL (≈ 93 µM).
